Data reported in article PMC2995015 (Biochemistry, 2010).
Substitutions are numbered along the chain they refer to.

What was measured:
Assay type in all cases: cell-based
PMAT mutant Y85W [1] = molecular target: T1, PMAT mutant Y85W (Homo sapiens, UniProt Q7RTT9, Y85W); assay: Concentration-dependent transport kinetics in stably transfected MDCK cells; settings: for Km / Vmax: Y85W, MDCK cells, 1 min, 37°C
T1 sequence (Q7RTT9 1-530 Y85W): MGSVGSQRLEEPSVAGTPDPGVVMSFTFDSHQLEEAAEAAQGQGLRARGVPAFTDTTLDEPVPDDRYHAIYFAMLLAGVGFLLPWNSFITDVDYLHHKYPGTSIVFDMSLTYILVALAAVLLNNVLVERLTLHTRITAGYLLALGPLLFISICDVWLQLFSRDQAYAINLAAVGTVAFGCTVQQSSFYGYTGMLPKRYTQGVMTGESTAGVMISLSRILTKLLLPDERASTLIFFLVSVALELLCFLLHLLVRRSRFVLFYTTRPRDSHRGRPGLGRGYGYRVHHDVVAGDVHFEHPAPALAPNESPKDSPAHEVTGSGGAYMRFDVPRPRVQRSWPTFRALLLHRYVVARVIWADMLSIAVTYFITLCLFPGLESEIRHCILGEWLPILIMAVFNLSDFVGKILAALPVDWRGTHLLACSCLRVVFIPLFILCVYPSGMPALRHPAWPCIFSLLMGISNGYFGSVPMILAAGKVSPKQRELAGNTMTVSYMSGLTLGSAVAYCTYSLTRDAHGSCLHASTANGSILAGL

PMAT mutant Y85W [2] = molecular target: T1, PMAT mutant Y85W; assay: Single-concentration 3H-substrate uptake in stably transfected MDCK cells; settings: MPP+ 1 μM, 5-HT 10 μM, dopamine 10 μM, 4 min, 37°C
PMAT mutant Y112W [3] = molecular target: T2, PMAT mutant Y112W (Homo sapiens, UniProt Q7RTT9, Y112W); assay: Concentration-dependent transport kinetics in stably transfected MDCK cells; settings: for Km / Vmax: Y112W, MDCK cells, 1 min, 37°C
T2 sequence (Q7RTT9 1-530 Y112W): T1 sequence (Q7RTT9 1-530 Y85W) with W85Y, Y112W

PMAT wild type = molecular target: T3, PMAT wild type (Homo sapiens, UniProt Q7RTT9); assay: as above; settings: 1 min, 37°C
T3 sequence (Q7RTT9 1-530): T1 sequence (Q7RTT9 1-530 Y85W) with W85Y

PMAT mutant Y112W [4] = molecular target: T2, PMAT mutant Y112W; assay: Single-concentration 3H-substrate uptake in stably transfected MDCK cells; settings: MPP+ 1 μM, 5-HT 10 μM, dopamine 10 μM, 4 min, 37°C
PMAT mutant Y112A = molecular target: T4, PMAT mutant Y112A (Homo sapiens, UniProt Q7RTT9, Y112A); assay: Uptake of uridine in the presence of NBMPR in stably transfected MDCK cells; settings: 0.5 μM NBMPR, vs vector-transfected cells
T4 sequence (Q7RTT9 1-530 Y112A): T1 sequence (Q7RTT9 1-530 Y85W) with W85Y, Y112A

PMAT mutant Y112S = molecular target: T5, PMAT mutant Y112S (Homo sapiens, UniProt Q7RTT9, Y112S); assay: as above; settings: 0.5 μM NBMPR, vs vector-transfected cells
T5 sequence (Q7RTT9 1-530 Y112S): T1 sequence (Q7RTT9 1-530 Y85W) with W85Y, Y112S

PMAT mutant Y85W [5] = molecular target: T1, PMAT mutant Y85W; assay: as above; settings: 0.5 μM NBMPR, vs vector-transfected cells
PMAT mutant Y85W [6] = molecular target: T1, PMAT mutant Y85W; assay: Uridine inhibition of organic cation transport in stably transfected MDCK cells; settings: uridine 1 mM; data not shown
WT PMAT = molecular target: T6, WT PMAT (Homo sapiens, UniProt Q7RTT9); assay: Uptake of uridine in the presence of NBMPR in stably transfected MDCK cells; settings: 0.5 μM NBMPR, vs vector-transfected cells
T6 sequence (Q7RTT9 1-530): T1 sequence (Q7RTT9 1-530 Y85W) with W85Y

Row | Km (PMAT mutant Y85W [1]) | Km (PMAT mutant Y112W [3]) | Vmax (PMAT mutant Y112W [3]) | Km (PMAT wild type) | transport efficiencies, % of the WT PMAT (PMAT mutant Y112W [3]; Y112W vs WT PMAT) | inhibitory effect on Y85W-mediated organic cations transport (PMAT mutant Y85W [6]) | Compound | increase in maximal velocity (Vmax) (PMAT mutant Y85W [1]; Y85W vs WT PMAT) | increase in transport efficiency (Vmax/Km) (PMAT mutant Y85W [1]; Y85W vs WT PMAT) | Vmax (PMAT mutant Y85W [1]) | transport activity compared to WT PMAT (PMAT mutant Y85W [2]) | reduction in Vmax (PMAT mutant Y112W [3]; Y112W vs WT PMAT) | Vmax (PMAT wild type) | activity retained compared to cells expressing WT PMAT (PMAT mutant Y112W [4]) | transport activity for uridine (PMAT mutant Y112A) | transport activity for uridine (PMAT mutant Y112S) | transport activity for uridine (PMAT mutant Y85W [5]) | transport activity for uridine (WT PMAT)
1 | 243 ± 30.4 µM | 88 ± 6.8 µM | 1.03 ± 0.09 nmol/mg protein/min | 244 ± 16.2 µM | 60–70% | – | NCCc1ccc(O)c(O)c1 [Dopamine, dopamine] | – | – | 3.87 ± 0.14 nmol/mg protein/min | – | – | 4.12 ± 0.35 nmol/mg protein/min | 50–60% | – | – | – | –
2 | 308 ± 50.8 µM | 104 ± 13.2 µM | 1.04 ± 0.13 nmol/mg protein/min | 168 ± 18.9 µM | – | – | NCCc1c[nH]c2ccc(O)cc12 [Serotonin, serotonin] | – | – | – | – | – | – | – | – | – | – | –
3 | – | – | – | – | – | no significant inhibitory effect | O=c1ccn([C@@H]2O[C@H](CO)[C@@H](O)[C@H]2O)c(=O)[nH]1 [uridine] | – | – | – | – | – | – | – | no statistically significant transport activity | no statistically significant transport activity | no statistically significant transport activity | no statistically significant transport activity

Row | Compound | Km (PMAT mutant Y85W [1]) | Km (PMAT mutant Y112W [3]) | Vmax (PMAT mutant Y112W [3]) | Km (PMAT wild type) | transport efficiencies, % of the WT PMAT (PMAT mutant Y112W [3]; Y112W vs WT PMAT) | inhibitory effect on Y85W-mediated organic cations transport (PMAT mutant Y85W [6]) | increase in maximal velocity (Vmax) (PMAT mutant Y85W [1]; Y85W vs WT PMAT) | increase in transport efficiency (Vmax/Km) (PMAT mutant Y85W [1]; Y85W vs WT PMAT) | Vmax (PMAT mutant Y85W [1]) | transport activity compared to WT PMAT (PMAT mutant Y85W [2]) | reduction in Vmax (PMAT mutant Y112W [3]; Y112W vs WT PMAT) | Vmax (PMAT wild type) | activity retained compared to cells expressing WT PMAT (PMAT mutant Y112W [4]) | transport activity for uridine (PMAT mutant Y112A) | transport activity for uridine (PMAT mutant Y112S) | transport activity for uridine (PMAT mutant Y85W [5]) | transport activity for uridine (WT PMAT)
4 | C[n+]1ccc(-c2ccccc2)cc1 [MPP^+, 1-methyl-4-phenylpyridinium] | 31.1 ± 6.9 µM | 147 ± 36.3 µM | 0.23 ± 0.02 nmol/mg protein/min | 42.2 ± 5 µM | – | – | 1.6 fold | about 2 fold | 0.94 ± 0.10 nmol/mg protein/min | significantly higher transport activity | 2.6 fold | 0.60 ± 0.04 nmol/mg protein/min | less than 20% | – | – | – | –
